These results are taken from patent US12173039B1, “TPL2 inhibiting agents, uses thereof, and detection of TPL2” (Washington University, priority 2021, dated 2024).

Data set [1] relates to IL1B. Nature of the data set: qRT-PCR of IL1B in HEK T/tH KRAS^G12V cells. As to conditions: 16 hours. The class given is cell-based, human. The procedure:
Total RNA was isolated using RNAzol RT (Sigma), cDNA was generated using High Capacity cDNA reverse transcription kit (Thermo Fisher Scientific, 4368814) and qPCR was performed using SYBR-Green reagent (Applied Biosystems, cat #4309155). All experiments were performed in biological duplicates or triplicates (n=2,3).

The subject of data set [2] is Hs695T cells. Nature of the data set: Drug response and viability assay, Hs695T. The class given is cell-based, human. The procedure: Cells were seeded at 1500-2500 cells per well in triplicates, in 96 well format. Next day, appropriate inhibitor was added in serial dilution from 1.00×102 μM or indicated single doses. Vehicle (DMSO) was added to match volume of inhibitor used for highest concentration. After 96-120 hours, 5× AlamarBlue® reagent (resazurin sodium salt, Sigma) was added to wells and incubated for 2-4 hours. Fluorescence at 585 nm (excitation 555 nm) was measured by SpectraMax i3 Microplate Reader. Raw values were normalized to vehicle, analyzed and graphed using GraphPad Prism v7/8 software.

The test system of data set [3] is p-MEK, p-ERK, and p-RSK. Nature of the data set: Immunoblots of MAPK pathway markers in human cell lines. The class given is cell-based. The procedure:
(§1) Standard immunoblotting procedure was followed. Cells were washed twice with ice-cold 1×PBS and lysed with ice-cold triton-X lysis buffer (25 mM Tris, pH 7.4, 150 mM NaCl, 5 mM EDTA, 1% Triton-X) containing 1× protease (10 μg mL-1 leupeptin, 700 ng mL-1 pepstatin, 170 ng mL-1 aprotinin, 1 mM PMSF) and phosphatase (10 mM NaF, 1 mM Na3VO4, 1 mM Na4P2O^7, 5 mM Na b-glycerophosphate) inhibitors. Lysates were quantified by Bradford assay (Thermo Scientific), normalized for concentration, and reduced and denatured with 6×SDS sample buffer followed by boiling for 5 minutes. 20-40 μg of protein per sample was resolved by SDS-PAGE, blotted on PVDF membrane and probed with primary antibodies (Cell Signaling Technologies: p-ERK1/2 (#4370), p-MEK1/2 (#9154), ERK1/2 (#4695), MEK1/2 (#8727), p-p105 (#4806), NFS2KB1 p105/p50 (#3035), p-IRAK4 (#11927), IRAK4 (#4363), ubiquitin (#43124), anti-HA (#3724), p-p90RSK (#11989), RSK1/2/3 (#9355), p-TPL2 (#4491), PARP (#9532), p-B-RAF S445 (#2696), BRAF (#9433S). Santa Cruz Biotechnology: GAPDH (#sc-32233), p-p65 S536 (#sc101752). Thermo Fisher Scientific: p-55 TPL2 (#PA5-36635). EMD Millipore: IRAK4 (#07-418). R&D systems: TPL2/MAP3K8 (#MAB4586). Novus Biologicals: anti-AU1 (#NB600-453). Abcam: p-p65 S276 (#ab194726)). Membranes were incubated with appropriate HRP-conjugated secondary antibodies (anti-mouse or anti-rabbit, (1:5000 dilution), Jackson Laboratory) and imaged using chemiluminescent substrate. Additional steps for immunoprecipitation include incubation of soluble fraction lysate with anti-HA magnetic beads (Thermo Scientific cat #88837) overnight at 4° C., washing, and elution using 1×SDS sample buffer and boiling as mentioned in manufacturer's protocol.

Data set [4] has as its system p-p105, p-p65. Put plainly: Immunoblots of NF-κB markers in PDAC cells. The class given is cell-based, human. As to conditions: PDAC lines after chemotherapy. The procedure: as §1
The test system of data set [5] is TLR9 and p-IRAK4 interaction. Put plainly: Proximity ligation assay (PLA). The conditions noted are these: 3 PDAC lines; 10 μM, 16 hours. In kind it is cell-based, human. The method, then: PLA was performed using Duolink® in situ Red Starter Kit Mouse/Rabbit (DUO92101, Sigma) per manufacturer's protocol. Briefly, cells were seeded on cover slips in 6 well plate at ˜50% confluency per well. Next day cells were treated with SN-38 (10 μM) and 16 hours later PLA was performed using p-IRAK4 (ABNOVA) and TLR9 (CST) primary antibodies. Stained cells were imaged using Nikon C2+ fluorescent microscope paired with NIS-Element software. Number of puncta per field was quantitated for six 400× fields per condition using Find Maxima tool in ImageJ software. Data was exported and graphed in GraphPad Prism v8.

The test system of data set [6] is serum-response element (SRE). Put plainly: Serum-response element (SRE) luciferase reporter assay. As to conditions: for SRE reporter activity (MAPK cascades): KRAS-mutant HPAC, MIA Paca-2, and Pa01C cells. The class given is cell-based, human. The method, then:
Cells stably expressing plasmid encoding serum-response-element (SRE) or NFKB promoter driven Firefly luciferase and constitutive Renilla luciferase were seeded at equal density per well and treatment was initiated the next day for 16-24 duration. Alternatively, 293T reporter cells were transfected in duplicate or triplicate with 1 μg of appropriate plasmid DNA. Medium was replaced 16-18 hours later and at 48 hours post-transfection reporter activity was measured using Dual-Glo® Luciferase Assay System. Data was acquired using SpectraMax i3Microplate Reader and analysis was performed by calculating ratio of firefly:renilla. Values were normalized to control and graphed using GraphPad Prism v7/8 software.

The conditions of data set [7]: patients with refractory hematologic malignancies; cited from earlier work.

For `CS(=O)(=O)N1CCN(Cc2cc3nc(-c4cccc5[nH]ncc45)nc(N4CCOCC4)c3s2)CC1` [GDC-0941], the “IL-1B production (IL1B expression by qRT-PCR)” value in data set [1] was “no effect”.
As to `CCCS(=O)(=O)Nc1ccc(F)c(C(=O)c2c[nH]c3ncc(-c4ccc(Cl)cc4)cc23)c1F` [PLX4032], in data set [2], the viability result is “modest growth suppressive effect”.
On to `CCc1c2c(nc3ccc(O)cc13)-c1cc3c(c(=O)n1C2)COC(=O)[C@]3(O)CC` [SN-38], for which the “induction of p-ERK, p-MEK, p-RSK, p-TPL2 and p-IRAK4” value in data set [3] (multiple PDAC lines, 10 μM, 16 hours, compared with 4 other chemotherapeutic agents) is “most potent in inducing”. Besides, the “NF-κB induction (p-p105)” value in data set [4] is listed as “also induced”. The “TLR9 and p-IRAK4 interaction” value in data set [5] is “markedly increased”.
Consider `CCCS(=O)(=O)Nc1ccc(F)c(C(=O)c2c[nH]c3ncc(Cl)cc23)c1F` [PLX-4720], for which the “SRE reporter activity (MAPK cascades)” value in data set [6] is listed as “paradoxically hyperactivate”.
For the molecule “recombinant hIL-1B: recombinant human IL-1B”, the “p-IRAK4, p-TPL2, p-MEK, p-ERK, and p-RSK” value in data set [3] (HEK T/H, HPAC, and Pa01C cells, 100 ng/ml) was “upregulated”.
In the case of `O=C(Nc1cc(C(F)(F)F)cc(C(F)(F)F)c1)c1cc(Cl)ccc1O` [IMD-0354], in data set [6] (HPAC cells), the “SRE-driven luciferase reporter activity” value is on record as “dose-dependent suppression”.
Consider `Cc1cc(-c2nc(C(=O)Nc3cc4oc(N5CCOCC5)nc4nc3N3CC[C@@H](O)C3)co2)ccn1` [CA-4948, N-[5-[(3R)-3-hydroxypyrrolidin-1-yl]-2-morpholin-4-yl-[1,3]oxazolo[4,5-b]pyridin-6-yl]-2-(2-methylpyridin-4-yl)-1,3-oxazole-4-carboxamide], for which, in data set [7], the “patients developing grade 1-2 neutropenia” value is reported as 23% and the “tolerability in clinical trial” value is “rather well tolerated”.
For `CC(C)(C)c1nc(-c2cccc(NS(=O)(=O)c3c(F)cccc3F)c2F)c(-c2ccnc(N)n2)s1` [dabrafenib], the “SRE reporter activity (MAPK cascades)” value in data set [6] is on record as “paradoxically hyperactivate”.
Turning to `CC(C)Nc1cc(-c2c[nH]c(C(=O)N[C@H](CO)c3cccc(Cl)c3)c2)c(Cl)cn1` [ulixertinib], the “IL-1B production (IL1B expression by qRT-PCR)” value in data set [1] is on record as “significantly abrogated”.
